Measured values from patent US20240181000A1, “LGG-DERIVED PEPTIDES AND METHODS OF USE THEREOF” (Ohio State Innovation Foundation, priority 2021, published 2024).
No end group written: not given here.

Legend:
multiple APEC serotypes = type: cell-based, E. coli
Description: Anti-APEC spectrum determination: Peptides (P1, P2, and P3) were tested against multiple APEC serotypes/strains to determine their spectrum of activity. Peptides were added at their MICs and the growth inhibitory activity of the peptides was determined as described above.

[1] = test system: intracellular APEC O78 in HD11 cells; test: Intracellular survival of APEC in HD11 cells (gentamicin protection assay); type: cell-based, chicken
Description: Effect of peptides on intracellular survival of APEC in HD11 cells: To determine the efficacy of peptides (P1, P2, and P3) against intracellular APEC, gentamicin protection assay was conducted in HD 11 (chicken macrophage) cells as described previously. The cells were cultured in Iscove's Modified Dulbecco's Media (IMDM) supplemented with 10% fetal bovine serum (FBS), 2 mM L-glutamine and 2% penicillin-streptomycin (P/S) solution and maintained at 37° C. incubator with 5% C02. Cells (approximately 10^4 cells/well) were seeded in a 96-well cell culture plate in 100 μL culture media and incubated for 36 h prior to using for the assay. Following incubation, the cells were replenished with 100 μL of fresh cell culture media with no FBS and antibiotic and incubated until infection (2 h). For the infection, the overnight grown APEC O78 was subcultured to mid-logarithmic phase, centrifuged, washed twice with PBS, adjusted to 1×10^7 CFU/mL. One-hundred microliters of the APEC suspension (MOI: 100) was added to each well of the 96-well plate and incubated for 1 h to allow the invasion. The cells were washed twice and treated with gentamicin (150 μg/mL) to kill the extracellular APEC. The cells were treated with peptides at 12 mM, 15 mM, and 18 mM concentrations. Infected but not treated, infected and DMSO-treated, and non-infected and not treated cells were used as controls. Three independent experiments were conducted.

APEC O78 membrane = test: Bacterial cytological profiling (confocal microscopy); type: cell-based, E. coli; conditions: 5×MIC, 3 h
Description: Bacterial cytological profiling (BCP): To identify the mode of action (MOA) of peptides (P1, P2, and P3), BCP approach was used as described previously. […] Following incubation, cultures were centrifuged, and bacteria was resuspended in 100 μL sterile water. FM4-64 (1 μg/mL; Invitrogen™ Molecular Probes™) and Syto-9 (5 μM; Invitrogen™ Molecular Probes™) stains were added to the bacterial cultures and incubated at 4° C. for 45 mins with shaking at 150 rpm. The stained bacteria were centrifuged, pelleted, and resuspended in 10 μL sterile water. The bacterial suspension (3 μL) was transferred onto glass slides containing thin layer of 1.2% agar and 20% LB media for confocal microscopy. Microscopy was performed using Leica TCS SP6 confocal scanning microscope (FM4-64-excitation 515 nm and emission 640 nm: Syto-9-excitation 485 nm and emission 498 nm) at Molecular and Cellular Imaging Center (MCIC), The Ohio State University (mcic.osu.edu/microscopy). Untreated bacterial culture was used as control.

APEC [2] = test: Alanine scanning SAR, anti-APEC activity; type: cell-based, E. coli
Text: Structure-activity relationship (SAR) study: To identify the crucial amino acid residues required for the peptide activity, alanine scanning libraries of peptides (P1, P2, and P3) (www.genscript.com/alanine_scanning.html) were synthesized (Table 22) and tested for anti-APEC activity as described above. The anti-APEC activity of peptide analogues (SEQ ID NO: 67-84) was then compared with the original peptide and the relative importance (% growth inhibition by peptide analogue/% growth inhibition by original peptide×100%) of each AA residue of the peptide was determined.

MlaA = test: Immunoblot analysis; type: cell-based, E. coli; conditions: densitometry
Description: (§1) Immunoblot analysis: To corroborate the findings of gene expression study, level of OmpC and MlaA proteins upon peptides (P1, P2, and P3) treatment was investigated as described previously. Peptides treated culture of APEC O78 was prepared as above and DMSO treated culture was used as control. Post-treatment, the fractions of cytoplasmic and membrane proteins was prepared using ultracentrifugation as previously described. The concentrations of fractionated membrane proteins were then normalized based on 280 nm and separated on a 12% SDS-PAGE. For immunoblot analysis, membrane proteins (25 μg) resolved on SDS-PAGE above were electrotransferred onto an Immuno-Blot® PVDF Membrane (Bio-Rad) and probed for OmpC and MlaA using anti-OmpC (1:2,000) (ThermoFisher Scientific) and anti-MlaA (1:15,000; Dr. Thomas J. Silhavy) polyclonal antibodies and goat anti-rabbit IgG HRP-conjugated secondary antibody (Sigma-Aldrich). The membrane was developed with Clarity Western ECL Substrate (Bio-Rad) and visualized in a FluorChem Q (proteinsimple) imager. The density of OmpC and MlaA proteins was quantified using ImageJ software.

OmpC = test: Immunoblot analysis; type: cell-based, E. coli; conditions: densitometry
Description: as §1

APEC [3] = type: in vivo, chickens
Text: FIGS. 57A-57D show the APEC load of chickens (at 7 dpi [days post infection]) treated with either peptides P-1 or P-2.

ST membrane = test: Transmission electron microscopy; type: cell-based, Salmonella enterica; conditions: 10×MIC, 3 h
Description: ST was treated with 10× peptide MIC and incubated for 3 h.
Transmission electron microscopy: To further visually analyze the inhibitory effects of P1 and P2 on ST, transmission electron microscopy (TEM) was performed as described previously. […] After which, cells were fixed overnight with 3% glutaraldehyde and 2% paraformaldehyde at room temperature. Cells were then washed and postfixed with 1% osmium tetroxide (OsO4). The washed cells were then dehydrated, with graded ethanol, and embedded with Embed 812 kit (Electron Microscopy Sciences, Pa). Ultrathin (70 nm) sections were prepared on formvar-carbon coated grids and stained with uranyl acetate and lead citrate. Untreated ST was used as a control. TEM was conducted at MCIC using the Hitachi H-7500 microscope.

PDENK [Peptide P2, PDENK]
Growth inhibition against APEC serotypes (multiple APEC serotypes): 95.0-100%
Intracellular APEC (log CFU/mL) ([1]; 12 mM, untreated 3.75 ± 0.10): 3.33 ± 0.03 log CFU/mL
Intracellular APEC (log CFU/mL) ([1]; 15 mM): No intracellular APEC was recovered
Intracellular APEC (log CFU/mL) ([1]; 15 mM, listed as P-2): 0.00 ± 0.00 log CFU/mL
Intracellular APEC (log CFU/mL) ([1]; 18 mM): 0.00 ± 0.00 log CFU/mL
APEC membrane in confocal microscopy (FM4-64/SYTO-9) (APEC O78 membrane): no or minimally visible APEC membrane
Relative importance of D and E in P2 (APEC [2]): 97.1%
Relative importance of P, N and K in P2 (APEC [2]): < 40%
MlaA level decreased vs untreated APEC (MlaA): 1.40 folds
OmpC level lower than in untreated APEC (OmpC): 9.27 folds
Reduction of APEC colonization in cecum (APEC [3]; 50 mg/L in drinking water, 7 dpi): 1.5 log CFU/gm
Bodyweight (APEC [3]; in vivo): no significant effect
ST membrane in TEM (ST membrane): disruption of the membrane characterized by sloughed or flaccid appearance
